Test results reported in paper PMC8471537, “Novel Coumarin-Thiadiazole Hybrids and Their Cu(II) and Zn(II) Complexes as Potential Antimicrobial Agents and Acetylcholinesterase Inhibitors” (International Journal of Molecular Sciences, 2021).

These compounds were tested against Acetylcholinesterase (AChE; E.C. 3.1.1.7) from Electrophorus electricus (Electrophorus electricus, UniProt O42275) (assay: Ellman assay, absorbance at […] nm).
Assay type: biochemical

Acetylcholinesterase (AChE; E.C. 3.1.1.7) from Electrophorus electricus, sequence (O42275 24-633): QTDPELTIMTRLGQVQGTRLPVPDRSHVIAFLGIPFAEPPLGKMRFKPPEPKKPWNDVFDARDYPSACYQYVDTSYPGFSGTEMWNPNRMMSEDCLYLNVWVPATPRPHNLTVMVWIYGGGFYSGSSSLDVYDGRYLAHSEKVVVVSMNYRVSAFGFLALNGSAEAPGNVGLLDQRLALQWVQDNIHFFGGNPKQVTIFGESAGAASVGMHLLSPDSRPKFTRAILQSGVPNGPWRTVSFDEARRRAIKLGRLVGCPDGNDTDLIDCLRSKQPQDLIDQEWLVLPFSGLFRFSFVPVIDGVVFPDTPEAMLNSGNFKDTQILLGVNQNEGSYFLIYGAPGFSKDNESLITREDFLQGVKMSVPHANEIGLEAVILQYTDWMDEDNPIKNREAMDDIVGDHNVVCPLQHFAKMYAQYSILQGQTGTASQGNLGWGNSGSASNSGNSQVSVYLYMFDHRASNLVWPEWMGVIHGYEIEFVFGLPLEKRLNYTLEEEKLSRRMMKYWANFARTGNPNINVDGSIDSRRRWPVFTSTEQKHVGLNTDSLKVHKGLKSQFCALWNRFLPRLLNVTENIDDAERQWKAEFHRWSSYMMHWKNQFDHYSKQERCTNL

| Structure (SMILES) | IC50 [µM] |
| --- | --- |
| CC(=O)Nc1nnc(-c2c(O)ccc3c(C)cc(=O)oc23)s1 [compound 4, 4] | 0.181 ± 0.0123 |
| Cc1cc(=O)oc2c(-c3nnc(N)s3)c(O)ccc12 [compound 2, 2] | 0.218 ± 0.0084 |
| CNc1nnc(-c2c(O)ccc3c(C)cc(=O)oc23)s1 [compound 3, 3] | 0.211 ± 0.0123 |
| Cc1cc(=O)oc2c(-c3nnc(Nc4ccccc4)s3)c(O)ccc12 [compound 5, 5] | 0.299 ± 0.0194 |
